# Laboratory results reported in patent US5156962A, “Process for producing carboxylic acid esters using carboxyesterase and an anhydride in organic solvent” (Takeda Chemical Industries, Ltd., priority 1986, dated 1992).
# How the values were obtained:
# [1] = Solubility of the crystals in solvents; format: physicochemical
# [2] = test system: PEG-modified esterase (carboxyl esterase); assay: Acetylation of lankacidin C to lankacidin A by PEG-modified esterase with different acetyl group donors (Lineweaver-Burk analysis); format: biochemical, Streptomyces rochei var. volubilis; conditions: acetyl group donor as substrate, 11 mM lankacidin C in methyl isobutyl ketone, 37° C., least-squares method from Table 2; for Vmax: lankacidin A formed
# Description: 2 ml of a solution of 11 mM concentrations of lankacidin C and 50 mM concentrations of acetic anhydride in methyl isobutyl ketone was put in a 20 ml test tube with stopper, to which was added 0.3 ml of a solution of PEG-modified esterase in 0.2M tris(hydroxymethyl) aminomethane-maleic acid buffer (pH 7.0), the concentration of PEG-modified esterase of which was 12 mg per ml, followed by shaking with shaking apparatus (80 spm) at 37° C.
# By high-performance liquid chromatography (hereinafter referred to briefly as HPLC method) as described below, the amount of lankacidin A formed was measured at the time shown in Table 1.
# By changing the concentration of acetyl group donor to those shown of Table 2, with the reaction time being 20 min., the same procedure as in Example 1 was conducted.
# By using Lineweaver-Burk's equation of the formula 2 [Biochemical Dictionary, first edition, page 1314 (1984), Tokyokagakudozin Ltd.] derived by modifying the Michaelis-Menten equation of formula 1 [Op Cit. page 1239], the reaction using acetic anhydride as an acetyl group donor was compared with that using ethyl acetate as acetyl group donor. [formula]
# By putting values of the concentration of acetyl group donor shown in Table 2 in the place of [S]o, and values of the amount of lankacidin A formed shown in Table 2 in the place of .nu., values of Km and Vmax were calculated by means of the least-squares method.
SMILES,Solubility in acetone ([1]; acetone),Solubility in chloroform ([1]; chloroform),Solubility in ethanol ([1]; ethanol),Solubility in methanol ([1]; methanol),Solubility in water ([1]; water),Vmax [2] [mM/20 min.],Km ([2]; reaction time 20 min.) [mM]
CCC(=O)OC1C=CC2OC2CC(C)OC(=O)CC(OC(=O)CC)C(OC)C(OC2OC(C)C(OC3CC(C)(O)C(OC(=O)CC)C(C)O3)C(N(C)C)C2O)C(CC=O)CC1C (centres unmarked) [9-propionyl maridomycin III],readily soluble,relatively soluble,readily soluble,readily soluble,hardly soluble,,
"CCOC(C)=O [Ethyl acetate, ethyl acetate]",,,,,,5.40,
"CC(=O)OC(C)=O [Acetic anhydride, acetic anhydride]",,,,,,6.59,7.69
